IC50 data for 52 compounds are collected here from patent US20210139517A1, “BICYCLIC HETEROARYL COMPOUNDS AND USES THEREOF” (Revolution Medicines, Inc., priority 2019, published 2021).

For one assay, the system named is SOS1 function in cells: cellular pERK in PC-9 cells (EGFR Ex19Del). Kind of assay: pERK potency assay in PC-9 cells (AlphaLISA SureFire Ultra p-ERK1/2). It counts as cell-based. The following applies: 1 hour incubation. Here is the method: The purpose of this assay is tomeasure the ability of test compounds to inhibit SOS1 function in cells. SOS1 activates RAS proteins by catalyzing the conversion of RAS-GDP to RAS-GTP in response to receptor tyrosine kinase activation. […] The procedure described below measures the level of cellular pERK in response to test compounds in PC-9 cells (EGFR Ex19Del).
PC-9 cells were grown and maintained using media and procedures recommended by the ATCC. On the day prior to compound addition, cells were plated in 384-well cell culture plates (40 μL/well) and grown overnight in a 37° C., 5% CO2 incubator. Test compounds were prepared in 10, 3-fold dilutions in DMSO, with a top concentration of 10 mM. On the day of the assay, 40 nL of test compound was added to each well of cell culture plate using an Echo550 liquid handler (LabCyte). Concentrations of test compound were tested in duplicate with highest test concentration being 10 μM. After compound addition, cells were incubated for 1 hour at 37° C., 5% CO2. Following incubation, culture medium was removed and cells were washed once with phosphate buffered saline.
Cellular pERK level was determined using the AlphaLISA SureFire Ultra p-ERK1/2 Assay Kit (PerkinElmer). Cells were lysed in 25 μL lysis buffer, with shaking at 600 RPM at room temperature for 15 minutes. Lysate (10 μL) was transferred to a 384-well Opti-plate (PerkinElmer) and 5 μL acceptor mix was added. The plate was centrifuged at 1000 RPM for 1 minute, and incubated in the dark for 2 hours. Following this incubation, 5 μL of donor mix was added, the plate was sealed and centrifuged at 1000 RPM for 1 minute, and the mixture was incubated for 2 hours at room temperature. Signal was read on an Envision plate reader (PerkinElmer) using standard AlphaLISA settings. Analysis of raw data was carried out in Excel (Microsoft) and Prism (GraphPad). Signal was plotted vs. the decadal logarithm of compound concentration, and IC50 was determined by fitting a 4-parameter sigmoidal concentration response model.
For orientation: Bead proximity is the source of the signal in Alpha formats.
Turning to `C[C@@H](Nc1ncnc2c1cc(Cc1ccccc1)c(=O)n2C)c1cccc(C(F)F)c1F` [Example 20-2], it took 2550 nM to reach half-maximal inhibition (IC50).

`C[C@@H](Nc1ncnc2c1cc(C1(C#N)CCN(C)CC1)c(=O)n2C)c1cccc(C(F)F)c1F` [Example 36-2]: half-maximal inhibition (IC50) required 63 nM.

Turning to `C[C@@H](Nc1ncnc2c1cc(C1CCN(C(=O)CO)CC1)c(=O)n2C)c1cccc(C(F)F)c1F` [Example 8-10], the concentration for half-maximal inhibition (IC50) (commonly the concentration needed to halve the response being measured) is 61.5 nM. The IC50 values of the last two compounds are within 1.5-fold of each other.

Consider `CC(=O)N1CCC(c2cc3c(N[C@H](C)c4cccc5c4CCC5(F)F)ncnc3n(C)c2=O)CC1` [Example 8-6], for which 34.4 nM corresponded to half-maximal inhibition (IC50).

Turning to `CO[C@@]1(c2cc3c(N[C@H](C)c4cccc(C(F)F)c4F)nc(C)nc3n(C)c2=O)CCN(C(C)=O)C1` [Example 32-69], the IC50 turned out to be 77.8 nM. Compared with the last compound, the IC50 is about 2.3-fold higher.

On to `C[C@@H](Nc1ncnc2c1cc(C1CCN(S(C)(=O)=O)CC1)c(=O)n2C)c1cccc(C(F)F)c1F` [Example 8-15], for which the 50% inhibitory concentration (IC50) came to 394 nM.

Turning to `COC1(c2cc3c(N[C@H](C)c4cccc5c4OCC5(F)F)ncnc3n(C)c2=O)CCN(C(C)=O)CC1` [Example 32-76], inhibition was half-maximal at 17.5 nM (IC50). This IC50 lies about 23-fold lower than the previous one.

Take `COC1(c2cc3c(N[C@H](C)c4cccc(C(F)F)c4F)ncnc3n(C)c2=O)CC2(COC2)C1` [Example 32-80]: the concentration for half-maximal inhibition (IC50) came to 154 nM.

Compound `Cc1nc(N[C@H](C)c2cccc(C(F)F)c2F)c2cc(C3CCS(=O)(=O)CC3)c(=O)n(C)c2n1` [Example 8-12] registered an IC50 of 138 nM. This IC50 and that of the compound before are within 1.5-fold of each other.

`COc1cccc(Cc2cc3c(N[C@H](C)c4cccc(C(F)F)c4F)nc(C)nc3n(C)c2=O)c1OC` [Example 20] returned an IC50 of 3950 nM.

In turn, `Cc1nc(N[C@H](C)c2cccc(C(F)F)c2F)c2cc(C3=CCCOC3)c(=O)n(CCO)c2n1` [Example 11-1] returned an IC50 of 345 nM. This IC50 lies about 11-fold lower than the previous one.

Regarding `C[C@@H](Nc1ncnc2c1cc(C1CCN(CC(F)(F)F)CC1)c(=O)n2C)c1cccc(C(F)F)c1F` [Example 8-16], the IC50 stood at 917 nM.

Compound `COC1(c2cc3c(N[C@H](C)c4cccc(C(F)F)c4F)ncnc3n(C)c2=O)CCN(C(C)=O)[C@H]1C` (stereo partly shown) [Example 32-100] displayed an IC50 of 200 nM.

In turn, `COC1(c2cc3c(N[C@H](C)c4cccc(C(F)F)c4F)ncnc3n(C)c2=O)CC2CS(=O)(=O)CC2C1` (stereo partly shown) [Example 32-84] yielded a half-maximal inhibitory concentration (IC50) of 173 nM.

As for `C[C@@H](Nc1ncnc2c1cc(-c1cncnc1)c(=O)n2C)c1cccc(C(F)F)c1F` [Example 21-2], the concentration for half-maximal inhibition (IC50) was 247 nM.

The compound `C[C@@H](Nc1ncnc2c1cc(C1CCN(CCF)CC1)c(=O)n2C)c1cccc(C(F)F)c1F` [Example 8-4] returned a half-inhibitory concentration (IC50) of 229 nM.

On to `COC1(c2cc3c(N[C@H](C)c4cccc(C(F)F)c4F)ncnc3n(C3CC3)c2=O)CCN(C(C)=O)CC1` [Example 11-4], for which inhibition was half-maximal at 32.2 nM (IC50).

Compound `COC1(c2cc3c(N[C@H](C)c4cccc(C(F)F)c4F)ncnc3n(C)c2=O)CCN(C)CC1` [Example 32-3] came in with an IC50 of 2240 nM.

In turn, `CO[C@]1(c2cc3c(N[C@H](C)c4cccc(C(F)F)c4C)ncnc3n(C)c2=O)CCN(C(C)=O)C1` [Example 32-98] had a half-maximal inhibitory concentration (IC50) of 231 nM.

Compound `C[C@@H](Nc1ncnc2c1cc(C1CCS(=O)(=O)CC1)c(=O)n2C)c1cccc(C(F)F)c1F` [Example 8-5] came in with an IC50 of 33.5 nM.

`CO[C@@]1(c2cc3c(N[C@H](C)c4cccc5c4OCC5(F)F)ncnc3n(C)c2=O)CCN(C(C)=O)C1` [Example 32-93]: the IC50 was found to be 294 nM. Against the preceding compound, the IC50 is about 8.8-fold higher.

Consider `CO[C@@]1(c2cc3c(N[C@H](C)c4cccc(C(F)F)c4C)ncnc3n(C)c2=O)CCN(C(C)=O)C1` [Example 32-99], for which half-maximal inhibition (IC50) was put at 16.9 nM. This IC50 lies about 17-fold lower than the previous one.

In the case of `COc1ccc(Cc2cc3c(N[C@H](C)c4cccc(C(F)F)c4F)nc(C)nc3n(C)c2=O)cc1OC` [Example 20-1], the IC50 stood at 6600 nM.

For the compound `COC1(c2cc3c(N[C@H](C)c4cccc(C(F)F)c4F)ncnc3n(C)c2=O)CCCN(C(C)=O)C1` (stereo partly shown) [Example 32-68], the IC50 was determined as 67.6 nM.

For `CO[C@]1(c2cc3c(N[C@H](C)c4cccc5c4OCC5(F)F)ncnc3n(C)c2=O)CCN(C(C)=O)C1` [Example 32-94], the IC50 came to 28 nM.

In turn, `COC1(c2cc3c(N[C@H](C)c4cccc(C(F)F)c4F)ncnc3n(C)c2=O)CCC2(CC1)COC2` [Example 32-72] showed a 50% inhibitory concentration (IC50) of 127 nM.

In the case of `COC1(c2cc3c(N[C@H](C)c4cccc(C(F)F)c4F)ncnc3n(C)c2=O)CC2CS(=O)(=O)CC2C1` (stereo partly shown) [Example 32-85], the IC50 came out at 53.7 nM. Against the preceding compound, the IC50 is about 2.4-fold lower.

`COC1(c2cc3c(N[C@H](C)c4cccc(C(F)F)c4F)ncnc3n(C)c2=O)CCC2(CC1)CS(=O)(=NC1CC1)C2` (stereo partly shown) [Example 32-83] came in with an IC50 of 321 nM.

On to `CC(=O)N1CCC(c2cc3c(N[C@H](C)c4cccc(C(F)F)c4F)nc(C)nc3n(C)c2=O)CC1` [Example 8-9], for which 86.8 nM corresponded to half-maximal inhibition (IC50).

On to `COC1(c2cc3c(N[C@@H](C)c4cccc(C(F)F)c4F)ncnc3n(C)c2=O)CCN(C(C)=O)CC1` [Example 32-88], for which the half-maximal inhibitory concentration (IC50) stood at 8.1 nM.

With `COC1(c2cc3c(N[C@H](C)c4cccc(C(F)F)c4F)ncnc3n(C)c2=O)CCS(=O)(=O)C(C)C1` (stereo partly shown) [Example 32-67], the concentration for half-maximal inhibition (IC50) was determined as 128 nM.

Compound `C[C@@H](Nc1ncnc2c1cc(-c1cnc(F)nc1)c(=O)n2C)c1cccc(C(F)F)c1F` [Example 21-5] yielded an IC50 of 1200 nM. Compared with the last compound, the IC50 is about 9.4-fold higher.

As to `COC1(c2cc3c(N[C@H](C)c4cccc(C(F)F)c4F)ncnc3n(C)c2=O)CCC2(CC1)CN(C(C)=O)C2` [Example 32-78], half-maximal inhibition (IC50) was put at 49.3 nM.

The compound `CC(=O)N1CCC(c2cc3c(N[C@H](C)c4cccc(C(F)F)c4F)ncnc3n(C)c2=O)CC1` [Example 8-3] gave an IC50 of 145 nM. This IC50 lies about 2.9-fold higher than the previous one.

Consider `COC1(c2cc3c(N[C@H](C)c4cccc(C(F)F)c4F)ncnc3n(C)c2=O)CCS(=O)(=O)C1` (stereo partly shown) [Example 32-74], for which half-maximal inhibition (IC50) required 201 nM.

Turning to `CC(=O)N1CCC(OC2CC2)(c2cc3c(N[C@H](C)c4cccc(C(F)F)c4F)ncnc3n(C)c2=O)C1` (stereo partly shown) [Example 32-71], the IC50 was found to be 41.8 nM. This IC50 is about 4.8-fold lower than that of the compound before.

As for `Cc1nc(N[C@H](C)c2cccc(C(F)F)c2F)c2cc(-c3cncnc3)c(=O)n(C)c2n1` [Example 21-4], it took 365 nM to reach half-maximal inhibition (IC50).

Compound `Cc1nc(N[C@H](C)c2cccc(C(F)F)c2F)c2cc(C3CCN(C4COC4)CC3)c(=O)n(C)c2n1` [Example 8-14] returned an IC50 of 420 nM. The IC50 values of the last two compounds are within 1.5-fold of each other.

In turn, `C[C@@H](Nc1ncnc2c1cc(Cc1ccccc1)c(=O)n2C)c1cccc(C(F)(F)F)c1` [Example 20-3] displayed an IC50 of 2640 nM.

The compound `CCc1c(C(F)F)cccc1[C@@H](C)Nc1ncnc2c1cc(C1CCN(C(C)=O)CC1)c(=O)n2C` [Example 8-7] came in with an IC50 of 351 nM. Against the preceding compound, the IC50 is about 7.5-fold lower.

`C[C@@H](Nc1ncnc2c1cc(-c1ccc[nH]1)c(=O)n2C)c1cccc(C(F)F)c1F` [Example 21-1] yielded a concentration for half-maximal inhibition (IC50) of 1160 nM.

Regarding `COC1(c2cc3c(N[C@H](C)c4cccc(C(F)F)c4F)ncnc3n(C)c2=O)CCN(C(C)=O)[C@@H]1C` (stereo partly shown) [Example 32-101], the IC50 turned out to be 348 nM.

Turning to `COC1(c2cc3c(N[C@H](C)c4cccc(C(F)F)c4F)ncnc3n(C)c2=O)CN(C(C)=O)CC12CC2` (stereo partly shown) [Example 32-95], the IC50 turned out to be 798 nM.

`C[C@@H](Nc1ncnc2c1cc(-c1ccc3nonc3c1)c(=O)n2C)c1cccc(C(F)F)c1F` [Example 21-8] registered an IC50 of 334 nM.

`C[C@@H](Nc1ncnc2c1cc(C1CCN(C3COC3)CC1)c(=O)n2C)c1cccc(C(F)F)c1F` [Example 8-8]: the concentration for half-maximal inhibition (IC50) came out at 389 nM.

Regarding `Cc1c([C@@H](C)Nc2ncnc3c2cc(C2CCS(=O)(=O)CC2)c(=O)n3C)cccc1C(F)(F)F` [Example 8-11], 45.1 nM corresponded to half-maximal inhibition (IC50).

In turn, `COC1(c2cc3c(N[C@H](C)c4cccc5c4OCC5(F)F)ncnc3n(C)c2=O)CCS(=O)(=O)CC1` [Example 32-77] came in with a concentration for half-maximal inhibition (IC50) of 47.7 nM.

`C[C@@H](Nc1ncnc2c1cc(C1(O)CCN(C)CC1)c(=O)n2C)c1cccc(C(F)F)c1F` [Example 28-1] registered a concentration for half-maximal inhibition (IC50) of 187 nM.

In turn, `COC1(c2cc3c(N[C@H](C)c4cccc(C(F)F)c4C)ncnc3n(C)c2=O)CCN(C(C)=O)CC1` [Example 32-87] yielded a half-maximal inhibitory concentration (IC50) of 13.4 nM.

Staying with this assay, now noted: Homo sapiens, PC-9, 1 h, 1 hour incubation.
In turn, `CC(=O)N1CC2CC2(c2cc3c(N[C@H](C)c4cccc(C(F)F)c4F)ncnc3n(C)c2=O)C1` (stereo partly drawn) [Example 54, 6-{3-acetyl-3-azabicyclo[3.1.0]hexan-1-yl}-4-{[(1R)-1-[3-(difluoromethyl)-2-fluorophenyl]ethyl]amino}-8-methyl-7H,8H-pyrido[2,3-d]pyrimidin-7-one] came in with an IC50 of 46.3 nM. That is a double-digit nanomolar value.

For `CC(=O)N1CCC(c2cc3c(N[C@H](C)c4cc(N)cc(C(F)(F)F)n4)ncnc3n(C)c2=O)CC1` [Example 17, 6-(1-acetyl-4-piperidyl)-4-[[(1R)-1-[4-amino-6-(trifluoromethyl)-2-pyridyl]ethyl]amino]-8-methyl-pyrido[2,3-d]pyrimidin-7-one], the half-maximal inhibitory concentration (IC50) is 377 nM.

In turn, `Cc1nc(N[C@H](C)c2cccc(C(F)F)c2F)c2cc(C3COC3)c(=O)n(C)c2n1` [Example 16, 4-[[(1R)-1-[3-(difluoromethyl)-2-fluoro-phenyl]ethyl]amino]-2,8-dimethyl-6-(oxetan-3-yl)pyrido[2,3-d]pyrimidin-7-one] returned a 50% inhibitory concentration (IC50) of 346 nM.
